Source: patent US9593305B2, “Differentiation of pluripotent stem cells” (Janssen Biotech, Inc., priority 2008, dated 2017)
Several values for one entry are separate records, joined by “and”; a condition that tells them apart may be missing. Identical values can stand only once.

Test system: H1 human embryonic stem cells
Test: Compounds and growth factors with low dose activin A (Example 9, Table 9)
Type: cell-based
Experimental: Clusters of H1 human embryonic stem cells were grown on reduced growth factor […]™ (Invitrogen; Cat #356231)-coated tissue culture plastic. Cells were passaged using collagenase (Invitrogen; Cat #17104-019) treatment and gentle scraping, washed to remove residual enzyme, and plated with even dispersal at a ratio of 1:1 (surface area) on reduced growth factor […]™-coated 96-well black plates (Packard ViewPlates; PerkinElmer; Cat #6005182) using volumes of 100 μl/well. Cells were allowed to attach as clusters and then recover log phase growth over a 1 to 3 day period, feeding daily with MEF conditioned medium supplemented with 8 ng/ml bFGF (R&D Systems; Cat #233-FB). Plates were maintained at 37° C., 5% CO2 in a humidified box throughout the duration of assay.
Stocks of growth factors purchased from R&D Systems were EGF (Cat #236-EG), FGF4 (Cat #235-F4), PDGF-A (Cat #221-AA), PDGF-D (Cat #1159-SB), PDGF-A/B (Cat #222-AB), VEGF (Cat #293-VE), and GDF-8 (Cat #788-08). Activin A was purchased from PeproTech (Cat #). Muscimol was purchased from Tocris (Cat #0289). All growth factors were solubilized in PBS with 0.1% BSA (Sigma; Cat #A7888) and stored frozen at −80° C. Muscimol was solubilized in 100% DMSO (Sigma; Cat #D2650) and stored frozen at −80° C. The compounds were available as 5 mM stocks in 96-well plate format, solubilized in 100% DMSO and stored at −80° C. The compounds were further diluted to an intermediate concentration of 0.2 mM in 50 mM HEPES (Invitrogen; Cat #15630-080), 20% DMSO and stored at 4° C. All growth factors and inhibitors were prepared in a deep well, 96-well polypropylene plate, diluted to 5× intermediate stocks in DMEM:F12 base medium at the beginning of assay and stored at 4° C.
A secondary screening assay was conducted, testing in triplicate and feeding on alternate days over the four-day assay timeframe. Assays were initiated by aspirating culture medium from each well followed by three washes in PBS to remove residual growth factors and serum. Test volumes of 80 μl per well were added back containing DMEM:F12 base medium (Invitrogen; Cat #11330-032) supplemented with 0.625% FCS (HyClone; Cat #SH30070.03), 25 ng/ml Wnt3a (R&D Systems), 12.5 ng/ml activin A, and 3.125 μM compound plus 20 μl 5× stock of growth factor or small molecule to yield a final concentration of 0.5% FCS, 20 ng/ml Wnt3a, 10 ng/ml activin A, and 2.5 μM compound. All remaining growth factors were tested at a final assay concentration of 50 ng/ml (EGF, FGF4, PDGF-A, PDGF-A/B, VEGF), with the exception of GDF-8 used at 25 ng/ml. Final assay concentration of muscimol was 20 μM. Positive control wells (100 μl/well) contained the same base medium supplemented with 0.5% FCS, 20 ng/ml Wnt3a and 10 ng/ml (low dose) or 100 ng/ml (high dose) activin A. Negative control wells (100 μl/well) contained the same base medium with 0.5% FCS and 20 ng/ml Wnt3a, omitting activin A.
Positive control wells (100 μl/well) contained the same base medium supplemented with 2% FCS and 10 ng/ml or 100 ng/ml activin A, omitting Wnt3a. Negative control wells (100 μl/well) contained the same base medium with 2% FCS, omitting both activin A and Wnt3a.
At the conclusion of four-days of culture, assay plates were washed twice with PBS, fixed with 4% paraformaldehyde (Alexis Biochemical; Cat #ALX-350-011) at room temperature for 20 minutes, then washed three times with PBS and permeabilized with 0.5% Triton X-100 (Sigma; Cat #T8760-2) for 20 minutes at room temperature. Cells were washed again three times with PBS and blocked with 4% chicken serum (Invitrogen; Cat #16110082) in PBS for 30 minutes at room temperature. Primary antibody (goat anti-human SOX17; R&D Systems; cat #AF1924) was diluted 1:100 in 4% chicken serum and added to each well for one hour at room temperature. […]

[1] = 10 ng/ml AA + compound + EGF + FGF4 + PDGF-A + Muscimol + Wnt3a
[2] = 10 ng/ml AA + compound + EGF + FGF4 + PDGF-A + VEGF + PDGF-D + Muscimol + GDF8 + Wnt3a
[3] = 10 ng/ml AA + compound + EGF + FGF4 + PDGF-AB + VEGF + Wnt3a
[4] = 10 ng/ml AA + compound + EGF + FGF4 + PDGF-AB + Wnt3a
[5] = 10 ng/ml AA + compound + EGF + FGF4 + Wnt3a
[6] = 10 ng/ml AA + compound + EGF + Wnt3a
[7] = 10 ng/ml AA + compound + FGF4 + Wnt3a
[8] = 10 ng/ml AA alone, no compound, no growth factors
[9] = 100 ng/ml AA alone, no compound, no growth factors

Molecule	Cell Number, % of positive control [1]	Cell Number, Average Total Cell Number [1]	Sox17 Expression, % of positive control [1]	Sox17 Expression, Average Total Intensity [1]	Cell Number, % of positive control [2]	Cell Number, Average Total Cell Number [2]	Sox17 Expression, % of positive control [2]	Sox17 Expression, Average Total Intensity [2]	Cell Number, % of positive control [3]	Cell Number, Average Total Cell Number [3]	Sox17 Expression, % of positive control [3]	Sox17 Expression, Average Total Intensity [3]	Cell Number, % of positive control [4]	Cell Number, Average Total Cell Number [4]	Sox17 Expression, % of positive control [4]	Sox17 Expression, Average Total Intensity [4]	Cell Number, % of positive control [5]	Cell Number, Average Total Cell Number [5]	Sox17 Expression, % of positive control [5]	Sox17 Expression, Average Total Intensity [5]	also measured
O=C1CCN2CCN(CC2)Cc2cc(Cl)cc(c2)Nc2ncnc(n2)-c2cncc(c2)CCCN1 [Compound 34, 5-Chloro-1,8,10,12,16,22,26,32-octaazapentacyclo[24.2.2.1˜3.7˜0.1˜9,13˜0.1˜14.18˜]tritriaconta-3(33), 4,6,9(32), 10,12,14(31), 15,17-nonaen-23-one]	233.85 % of positive control	17890	258.30 % of positive control	2.88E+08	240.02 % of positive control	18362	309.74 % of positive control	3.45E+08	203.58 % of positive control	15574	232.70 % of positive control	2.59E+08	233.65 % of positive control	17875	241.07 % of positive control	2.68E+08	185.07 % of positive control	14158	215.35 % of positive control	2.40E+08	Cell Number, % of positive control [6]: 189.89 % of positive control; Cell Number, Average Total Cell Number [6]: 14527; Sox17 Expression, % of positive control [6]: 204.84 % of positive control; Sox17 Expression, Average Total Intensity [6]: 2.28E+08; Cell Number, % of positive control [7]: 174.15 % of positive control; Cell Number, Average Total Cell Number [7]: 13323; Sox17 Expression, % of positive control [7]: 196.86 % of positive control; Sox17 Expression, Average Total Intensity [7]: 2.19E+08; Cell Number, % of positive control (10 ng/ml AA + compound + Wnt3a): 46.91 % of positive control; Cell Number, Average Total Cell Number (10 ng/ml AA + compound + Wnt3a): 3589; Sox17 Expression, % of positive control (10 ng/ml AA + compound + Wnt3a): 63.08 % of positive control; Sox17 Expression, Average Total Intensity (10 ng/ml AA + compound + Wnt3a): 7.02E+07
Activin A: recombinant human activin A (PeproTech), TGF-beta family member																					Cell Number, % of positive control [8]: 67.67 % of positive control and 100.00 % of positive control; Cell Number, Average Total Cell Number [8]: 5177 and 6132; Cell Number, % of positive control [9]: 100.00 % of positive control and 157.51 % of positive control; Cell Number, Average Total Cell Number [9]: 7650 and 9658; Sox17 Expression, % of positive control [9]: 100.00 % of positive control; Sox17 Expression, Average Total Intensity [9]: 1.11E+08 and 1.14E+08
O=C1NCCCc2cncc(c2)-c2ncnc(n2)Nc2cc(Cl)cc(c2)CN2CCCC1C2 (stereo not shown) [Compound 37, 10-Chloro-3,5,7,14,20,26,31-heptaazapentacyclo[22.3.1.1˜2,6˜0.1˜8,12˜0.1˜14,18˜]hentriaconta-1(28), 2(31), 3,5,8(30), 9,11,24,26-nonaen-19-one]	59.34 % of positive control	4540	0.83 % of positive control	9.23E+05	74.65 % of positive control	5711	10.82 % of positive control	1.21E+07	62.31 % of positive control	4767	−0.46 % of positive control	−5.16E+05	55.20 % of positive control	4223	−0.55 % of positive control	−6.15E+05	45.77 % of positive control	3501	0.50 % of positive control	5.60E+05	Cell Number, % of positive control [6]: 18.70 % of positive control; Cell Number, Average Total Cell Number [6]: 1431; Sox17 Expression, % of positive control [6]: −2.47 % of positive control; Sox17 Expression, Average Total Intensity [6]: −2.75E+06; Cell Number, % of positive control [7]: 51.37 % of positive control; Cell Number, Average Total Cell Number [7]: 3930; Sox17 Expression, % of positive control [7]: −1.69 % of positive control; Sox17 Expression, Average Total Intensity [7]: −1.88E+06; Cell Number, % of positive control (10 ng/ml AA + compound + Wnt3a): 10.34 % of positive control; Cell Number, Average Total Cell Number (10 ng/ml AA + compound + Wnt3a): 791; Sox17 Expression, % of positive control (10 ng/ml AA + compound + Wnt3a): −2.68 % of positive control; Sox17 Expression, Average Total Intensity (10 ng/ml AA + compound + Wnt3a): −2.99E+06
